Laboratory results taken from the supplement of paper PMC9663587.

Experiments:
Assay in all cases: increase in dead-cell fraction, 72 h; higher = more death;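 further: breast cancer cell lines in 384-well plates, stained with Hoechst plus LIVE/DEAD far red dye and imaged, cells above an LDR intensity threshold counted dead, Hoechst-negative corpses included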
Luminespib/NVP-AUY922 = compound: CCNC(=O)c1noc(-c2cc(C(C)C)c(O)cc2O)c1-c1ccc(CN2CCOCC2)cc1 [Luminespib/NVP-AUY922]
Vorinostat = compound: O=C(CCCCCCC(=O)Nc1ccccc1)NO [Vorinostat]
Rucaparib = compound: CNCc1ccc(-c2[nH]c3cc(F)cc4c3c2CCNC4=O)cc1 [Rucaparib]
Alpelisib/BYL719 = compound: Cc1nc(NC(=O)N2CCC[C@H]2C(N)=O)sc1-c1ccnc(C(C)(C)C(F)(F)F)c1 [Alpelisib/BYL719]
senexin b = compound: CN1CCN(C(=O)c2ccc3cc(CCNc4ncnc5ccc(C#N)cc45)ccc3c2)CC1 [senexin b]
AZD2014 = compound: CNC(=O)c1cccc(-c2ccc3c(N4CCOC[C@@H]4C)nc(N4CCOC[C@@H]4C)nc3n2)c1 [AZD2014]

AU565
increase in dead-cell fraction (Luminespib/NVP-AUY922; 0.0003162 µM): -0.0005
increase in dead-cell fraction (Luminespib/NVP-AUY922; 0.001 µM): -0.0013
increase in dead-cell fraction (Luminespib/NVP-AUY922; 0.003162 µM): 0.0017
increase in dead-cell fraction (Luminespib/NVP-AUY922; 0.01 µM): 0.0215
increase in dead-cell fraction (Luminespib/NVP-AUY922; 0.03162 µM): 0.03
increase in dead-cell fraction (Luminespib/NVP-AUY922; 0.1 µM): 0.0462
increase in dead-cell fraction (Luminespib/NVP-AUY922; 0.3162 µM): 0.0389
increase in dead-cell fraction (Luminespib/NVP-AUY922; 1 µM): 0.0492
increase in dead-cell fraction (Vorinostat; 0.001 µM): -0.0016
increase in dead-cell fraction (Vorinostat; 0.003162 µM): 0.0067
increase in dead-cell fraction (Vorinostat; 0.01 µM): 0.0043
increase in dead-cell fraction (Vorinostat; 0.03162 µM): 0.0012
increase in dead-cell fraction (Vorinostat; 0.1 µM): 0.0011
increase in dead-cell fraction (Vorinostat; 0.3162 µM): -0.0009
increase in dead-cell fraction (Vorinostat; 1 µM): 0.0099
increase in dead-cell fraction (Vorinostat; 3.162 µM): 0.142
increase in dead-cell fraction (Vorinostat; 10 µM): 0.241
increase in dead-cell fraction (Rucaparib; 0.001 µM): 0.0051
increase in dead-cell fraction (Rucaparib; 0.003162 µM): -0.0024
increase in dead-cell fraction (Rucaparib; 0.01 µM): 0.0015
increase in dead-cell fraction (Rucaparib; 0.03162 µM): 0.0073
increase in dead-cell fraction (Rucaparib; 0.1 µM): -0.0049
increase in dead-cell fraction (Rucaparib; 0.3162 µM): -0.0044
increase in dead-cell fraction (Rucaparib; 1 µM): -0.0017
increase in dead-cell fraction (Rucaparib; 3.162 µM): -0.0036
increase in dead-cell fraction (Rucaparib; 10 µM): -0.0017
increase in dead-cell fraction (Alpelisib/BYL719; 0.001 µM): 0.0064
increase in dead-cell fraction (Alpelisib/BYL719; 0.003162 µM): 0.0041
increase in dead-cell fraction (Alpelisib/BYL719; 0.01 µM): 0.0062
increase in dead-cell fraction (Alpelisib/BYL719; 0.03162 µM): 0.0114
increase in dead-cell fraction (Alpelisib/BYL719; 0.1 µM): 0.0193
increase in dead-cell fraction (Alpelisib/BYL719; 0.3162 µM): 0.0259
increase in dead-cell fraction (Alpelisib/BYL719; 1 µM): 0.0468
increase in dead-cell fraction (Alpelisib/BYL719; 3.162 µM): 0.0789
increase in dead-cell fraction (Alpelisib/BYL719; 10 µM): 0.222
increase in dead-cell fraction (senexin b; 0.001 µM): -0.0057
increase in dead-cell fraction (senexin b; 0.003162 µM): -0.0066
increase in dead-cell fraction (senexin b; 0.01 µM): -0.0019
increase in dead-cell fraction (senexin b; 0.03162 µM): -0.0056
increase in dead-cell fraction (senexin b; 0.1 µM): -0.0146
increase in dead-cell fraction (senexin b; 0.3162 µM): 0.0036
increase in dead-cell fraction (senexin b; 1 µM): 0.0078
increase in dead-cell fraction (senexin b; 3.162 µM): 0.0105
increase in dead-cell fraction (senexin b; 10 µM): -0.0068
increase in dead-cell fraction (AZD2014; 0.001 µM): 0.0342
increase in dead-cell fraction (AZD2014; 0.003162 µM): 0.0014
increase in dead-cell fraction (AZD2014; 0.01 µM): 0.032
increase in dead-cell fraction (AZD2014; 0.03162 µM): 0.0412
increase in dead-cell fraction (AZD2014; 0.1 µM): 0.0311
increase in dead-cell fraction (AZD2014; 0.3162 µM): 0.107
increase in dead-cell fraction (AZD2014; 1 µM): 0.0854
increase in dead-cell fraction (AZD2014; 3.162 µM): 0.0584
increase in dead-cell fraction (AZD2014; 10 µM): 0.126
